Results reported in patent US10183952B2, “Thienopyrroles as histone demethylase inhibitors” (ISTITUTO EUROPEO DI ONCOLOGIA S.R.L., priority 2014, dated 2019).
Where a name gives a salt, the structure may show the parent alone.

biological target: human recombinant KDM1A/CoREST protein (Homo sapiens, UniProt O60341); experiment: Assay of enzyme inhibition of KDM1A (LSD1), TR-FRET
Description: The intensity of the light emission is proportional to the level of biotinylated reaction product. The complex of human recombinant KDM1A/CoREST protein was produced in E. coli as separate proteins and co-purified as previously described.
Demethylase reaction was started by the addition of 50 nM histone H3K4 monomethylated.
The resulting mixture was incubated in the dark for 1 h at RT.
The IC50 was calculated using GraphPad Software.

| IC50 | SMILES |
| --- | --- |
| < 10 µM | Cn1c(C(=O)Nc2cccc(COc3ccncc3)c2)cc2sccc21 [Example 22, 4-methyl-N-[3-(4-pyridyloxymethyl)phenyl]thieno[3,2-b]pyrrole-5-carboxamide] |
| < 10 µM | CN1CCC(Oc2ccc(OCc3ccc(NC(=O)c4cc5sccc5n4C)cc3)cc2)CC1 [Example 23, 4-methyl-N-[4-[[4-[(1-methyl-4-piperidyl)oxy]phenoxy]methyl]phenyl]thieno[3,2-b]pyrrole-5-carboxamide] |
| < 10 µM | Cn1c(C(=O)Nc2cccc(COc3ccc(OCC4CCNCC4)cc3)c2)cc2sccc21 [Example 26, 4-methyl-N-[3-[[4-(4-piperidylmethoxy)phenoxy]methyl]phenyl]thieno[3,2-b]pyrrole-5-carboxamide] |
| < 10 µM | Cn1c(C(=O)Nc2ccccc2COc2ccc(OC3CCCNC3)cc2)cc2sccc21 (stereo not shown) [Example 27, 4-methyl-N-[2-[[4-(3-piperidyloxy)phenoxy]methyl]phenyl]thieno[3,2-b]pyrrole-5-carboxamide] |
| < 10 µM | Cn1c(C(=O)Nc2cccc(COc3ccc(OC4CCCNC4)cc3)c2)cc2sccc21 (stereo not shown) [Example 28, 4-methyl-N-[3-[[4-(3-piperidyloxy)phenoxy]methyl]phenyl]thieno[3,2-b]pyrrole-5-carboxamide] |
| < 10 µM | Cn1c(C(=O)Nc2cccc(COc3ccc(O[C@H]4CC[C@H](N)CC4)cc3)c2)cc2sccc21 [Example 29, N-[3-[[4-(trans-4-aminocyclohexoxy)phenoxy]methyl]phenyl]-4-methyl-thieno[3,2-b]pyrrole-5-carboxamide] |
| < 10 µM | Cn1c(C(=O)Nc2cccc(COc3ccc(OCC4CNC4)cc3)c2)cc2sccc21 [Example 30, N-[3-[[4-(azetidin-3-ylmethoxy)phenoxy]methyl]phenyl]-4-methyl-thieno[3,2-b]pyrrole-5-carboxamide] |
| < 10 µM | CNCCCOc1ccc(OCc2ccccc2NC(=O)c2cc3sccc3n2C)cc1 [Example 31, 4-methyl-N-[2-[[4-(3-methylaminopropoxy)phenoxy]methyl]phenyl]thieno[3,2-b]pyrrole-5-carboxamide hydrochloride] |
| < 10 µM | Cn1c(C(=O)Nc2cccc(COc3ccc(OC4CCNC4)cc3)c2)cc2sccc21 (stereo not shown) [Example 32, 4-methyl-N-[3-[(4-pyrrolidin-3-yloxyphenoxy)methyl]phenyl]thieno[3,2-b]pyrrole-5-carboxamide hydrochloride] |
| < 10 µM | Cn1c(C(=O)Nc2cccc(COc3ccc(OC4CCCNCC4)cc3)c2)cc2sccc21 (stereo not shown) [Example 33, N-[3-[[4-(azepan-4-yloxy)phenoxy]methyl]phenyl]-4-methyl-thieno[3,2-b]pyrrole-5-carboxamide] |
| < 10 µM | Cn1c(C(=O)Nc2cccc(COc3ccc(O[C@H]4CC[C@@H](N)CC4)cc3)c2)cc2sccc21 [Example 34, N-[3-[[4-(cis-4-aminocyclohexoxy)phenoxy]methyl]phenyl]-4-methyl-thieno[3,2-b]pyrrole-5-carboxamide] |
| < 10 µM | Cn1c(C(=O)Nc2ccccc2C(=O)Nc2ccc(OC3CCNCC3)cc2)cc2sccc21 [Example 36, 4-methyl-N-[2-[[4-(4-piperidyloxy)phenyl]carbamoyl]phenyl]thieno[3,2-b]pyrrole-5-carboxamide] |
| < 10 µM | Cn1c(C(=O)Nc2ccccc2COc2ccc(N3CCNCC3)cc2)cc2sccc21 [Example 37, 4-methyl-N-[2-[(4-piperazin-1-ylphenoxy)methyl]phenyl]thieno[3,2-b]pyrrole-5-carboxamide] |
| < 10 µM | Cn1c(C(=O)Nc2ccccc2COc2ccc(NC3CCNCC3)cc2)cc2sccc21 [Example 39, 4-methyl-N-[2-[[4-(4-piperidylamino)phenoxy]methyl]phenyl]thieno[3,2-b]pyrrole-5-carboxamide; 2,2,2-trifluoroacetic acid] |
| < 10 µM | Cn1c(C(=O)Nc2ccccc2COc2ccc(OCC3CNC3)cc2)cc2sccc21 [Example 40, N-[2-[[4-(azetidin-3-ylmethoxy)phenoxy]methyl]phenyl]-4-methyl-thieno[3,2-b]pyrrole-5-carboxamide; 2,2,2-trifluoroacetic acid] |
| < 10 µM | Cn1c(C(=O)Nc2ccccc2COc2ccc(CN3CCC4(CCNCC4)C3)cc2)cc2sccc21 [Example 41, N-[2-[[4-(2,8-diazaspiro[4.5]decan-2-ylmethyl)phenoxy]methyl]phenyl]-4-methyl-thieno[3,2-b]pyrrole-5-carboxamide] |

| IC50 | SMILES |
| --- | --- |
| < 10 µM | COCc1cccc(NC(=O)c2cc3sccc3n2C)c1COc1ccc(OC[C@@H]2CCNC2)cc1 [Example 42, N-[3-(methoxymethyl)-2-[[4-[[(3R)-pyrrolidin-3-yl]methoxy]phenoxy]methyl]phenyl]-4-methyl-thieno[3,2-b]pyrrole-5-carboxamide hydrochloride] |
| < 10 µM | COCc1cccc(NC(=O)c2cc3sccc3n2C)c1COc1ccc(OC2CCNCC2)cc1 [Example 43, N-[3-(methoxymethyl)-2-[[4-(4-piperidyloxy)phenoxy]methyl]phenyl]-4-methyl-thieno[3,2-b]pyrrole-5-carboxamide hydrochloride] |
| < 10 µM | COCc1cccc(NC(=O)c2cc3sccc3n2C)c1COc1ccc(OC2CCCNCC2)cc1 (stereo not shown) [Example 44, N-[2-[[4-(azepan-4-yloxy)phenoxy]methyl]-3-(methoxymethyl)phenyl]-4-methyl-thieno[3,2-b]pyrrole-5-carboxamide hydrochloride] |
| < 10 µM | CCn1c(C(=O)Nc2cccc(COC)c2)cc2sccc21 [Example 45, 4-ethyl-N-[3-(methoxymethyl)phenyl]thieno[3,2-b]pyrrole-5-carboxamide] |
| < 10 µM | CSCc1cccc(NC(=O)c2cc3sccc3n2C)c1 [Example 46, 4-methyl-N-[3-(methylsulfanylmethyl)phenyl]thieno[3,2-b]pyrrole-5-carboxamide] |
| < 25 µM | COCc1cccc(NC(=O)c2cc3ccsc3n2C)c1 [Example 48, N-[3-(methoxymethyl)phenyl]-6-methyl-thieno[2,3-b]pyrrole-5-carboxamide] |
| < 25 µM | Cn1c(C(=O)Nc2ccccc2COc2ccc(OC3CCNCC3)cn2)cc2sccc21 [Example 56, 4-Methyl-N-[2-[[5-(4-piperidyloxy)-2-pyridyl]oxymethyl]phenyl]thieno[3,2-b]pyrrole-5-carboxamide hydrochloride] |
| < 50 µM | Cn1c(C(=O)Nc2ccccc2OCC2CCNCC2)cc2sccc21 [Example 57, 4-Methyl-N-[2-(4-piperidylmethoxy)phenyl]thieno[3,2-b]pyrrole-5-carboxamide hydrochloride] |
| < 10 µM | Cn1c(C(=O)Nc2cccc(COc3cccc(OC4CCNCC4)c3)c2)cc2sccc21 [Example 58, 4-Methyl-N-[3-[[3-(4-piperidyloxy)phenoxy]methyl]phenyl]thieno[3,2-b]pyrrole-5-carboxamide hydrochloride] |
| < 10 µM | Cn1c(C(=O)Nc2cccc(COc3ccc(CNC(=N)N)cc3)c2)cc2sccc21 [Example 59, N-[3-[[4-(Guanidinomethyl)phenoxy]methyl]phenyl]-4-methyl-thieno[3,2-b]pyrrole-5-carboxamide; trifluoroacetic acid] |
| < 10 µM | Cn1c(C(=O)Nc2ccccc2COc2ccc(CNC(=N)N)cc2)cc2sccc21 [Example 60, N-[2-[[4-(Guanidinomethyl)phenoxy]methyl]phenyl]-4-methyl-thieno[3,2-b]pyrrole-5-carboxamide; trifluoroacetic acid] |
| < 10 µM | Cn1c(C(=O)Nc2ccccc2COc2cccc(OC3CCNCC3)c2)cc2ccsc21 [Example 64, 6-Methyl-N-[2-[[3-(4-piperidyloxy)phenoxy]methyl]phenyl]thieno[2,3-b]pyrrole-5-carboxamide] |
| < 10 µM | CCn1c(C(=O)Nc2ccccc2COc2cccc(OC3CCNCC3)c2)cc2ccsc21 [Example 65, 6-Ethyl-N-[2-[[3-(4-piperidyloxy)phenoxy]methyl]phenyl]thieno[2,3-b]pyrrole-5-carboxamide] |
| < 10 µM | CCn1c(C(=O)Nc2ccccc2COc2ccc(OC3CCNCC3)cc2)cc2ccsc21 [Example 66, 6-Ethyl-N-[2-[[4-(4-piperidyloxy)phenoxy]methyl]phenyl]thieno[2,3-b]pyrrole-5-carboxamide hydrochloride] |
| < 10 µM | Cn1c(C(=O)Nc2ccccc2COc2ccc(OC3CCNCC3)cc2)cc2ccsc21 [Example 67, 6-Methyl-N-[2-[[4-(4-piperidyloxy)phenoxy]methyl]phenyl]thieno[2,3-b]pyrrole-5-carboxamide] |
| < 10 µM | Cn1c(C(=O)Nc2ccccc2COc2ccc(OCC3CCNC3)cc2)cc2ccsc21 (stereo not shown) [Example 68, 6-Methyl-N-[2-[[4-(pyrrolidin-3-ylmethoxy)phenoxy]methyl]phenyl]thieno[2,3-b]pyrrole-5-carboxamide hydrochloride] |

| SMILES | IC50 |
| --- | --- |
| Cn1c(C(=O)Nc2ccccc2COc2ccc(O[C@@H]3C[C@H]4CC[C@@H](C3)N4)cc2)cc2sccc21 [Example 24, N-[2-[[4-[[(1S,5R)-8-azabicyclo[3.2.1]octan-3-yl]oxy]phenoxy]methyl]phenyl]-4-methyl-thieno[3,2-b]pyrrole-5-carboxamide] | < 10 µM |
| Cn1c(C(=O)Nc2cccc(COc3ccc(O[C@@H]4C[C@H]5CC[C@@H](C4)N5)cc3)c2)cc2sccc21 [Example 25, N-[3-[[4-[[(1S,5R)-8-azabicyclo[3.2.1]octan-3-yl]oxy]phenoxy]methyl]phenyl]-4-methyl-thieno[3,2-b]pyrrole-5-carboxamide] | < 10 µM |
